The source of these data is patent US9730914B2, “3,5-diaminopyrazole kinase inhibitors” (Axikin Pharmaceuticals, Inc., priority 2014, dated 2017).

For one assay, the target named is T1, JAK3 (Homo sapiens, UniProt P52333).
T1 construct: made in house; host or cells: E. coli BL21-derived host (T7 phage) or HEK-293
The assay is described as follows: Kinase competition binding assay (Kd, qPCR readout), JAK3. The following applies: for Kd: Kd class, JAK3, read-out: JAK3 Activity Level; for RCK:JAK3 selectivity ratio: ratio Kd (JAK3): Kd (RCK). The gist of the method: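 Kd values were derived from 11-point, 3-fold compound series at 1% DMSO, usually topping at 30,000 nM, with retesting from a lower top when under 0.5 nM. It competed with bead-immobilized ligand for 1 h at room temperature, and the captured kinase was measured by qPCR after elution.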
(Quantitative PCR measures a nucleic acid by following its amplification.)

The target of assay [1] is T2, kinase domain protein of RC kinase (RCK) (Homo sapiens, UniProt Q56UN5).
T2 construct: made in house; host or cells: E. coli BL21-derived host (T7 phage) or HEK-293
T2 sequence (Q56UN5 1061-1324 limits assumed): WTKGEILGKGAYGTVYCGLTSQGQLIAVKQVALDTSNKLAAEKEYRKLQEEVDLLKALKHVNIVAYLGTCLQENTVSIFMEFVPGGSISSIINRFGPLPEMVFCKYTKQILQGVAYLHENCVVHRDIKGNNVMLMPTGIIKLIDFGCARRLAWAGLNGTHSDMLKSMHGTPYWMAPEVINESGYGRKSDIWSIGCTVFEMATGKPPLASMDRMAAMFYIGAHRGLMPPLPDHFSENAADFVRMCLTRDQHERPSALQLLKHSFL
In words: Kinase competition binding assay (Kd, qPCR readout), RC kinase. The following applies: Kd class, read-out: RCK Activity Level. The gist of the method:
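Competition binding: DNA-tagged kinase (T7 phage or HEK-293-expressed) plus immobilized biotinylated ligand beads and compound, 1 h at room temperature, 1% DMSO. Bead-bound kinase eluted and quantified by qPCR. Kd from 11-point 3-fold dilution, top 30,000 nM, retested lower if below 0.5 nM.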

A further assay deals with T3, JAK2 (Homo sapiens, UniProt O60674).
T3 construct: made in house; host or cells: E. coli BL21-derived host (T7 phage) or HEK-293
In words: Kinase competition binding assay (Kd, qPCR readout), JAK2. The note with it: for Kd: Kd class, JAK2, read-out: JAK2 Activity Level; for RCK:JAK2 selectivity ratio: ratio Kd (JAK2): Kd(RCK). The gist of the method: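 Competition binding: DNA-tagged kinase (T7 phage or HEK-293-expressed), immobilized biotinylated ligand beads and compound in SeaBlock/PBS/Tween/DTT buffer, 1 hour at room temperature; bound kinase eluted and quantified by qPCR. Kd from 11-point 3-fold dilution, top 30,000 nM typically, final DMSO 1%.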

T3 sequence (O60674 840-1132 limits assumed): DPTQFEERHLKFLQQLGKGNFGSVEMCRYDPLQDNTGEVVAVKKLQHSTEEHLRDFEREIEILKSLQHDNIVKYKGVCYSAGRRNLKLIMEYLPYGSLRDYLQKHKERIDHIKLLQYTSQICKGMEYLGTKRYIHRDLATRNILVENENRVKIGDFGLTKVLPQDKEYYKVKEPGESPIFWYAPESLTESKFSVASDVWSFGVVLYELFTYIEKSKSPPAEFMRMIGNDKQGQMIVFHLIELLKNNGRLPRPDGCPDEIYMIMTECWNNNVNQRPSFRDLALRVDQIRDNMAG
T1 sequence (P52333 811-1124 limits assumed): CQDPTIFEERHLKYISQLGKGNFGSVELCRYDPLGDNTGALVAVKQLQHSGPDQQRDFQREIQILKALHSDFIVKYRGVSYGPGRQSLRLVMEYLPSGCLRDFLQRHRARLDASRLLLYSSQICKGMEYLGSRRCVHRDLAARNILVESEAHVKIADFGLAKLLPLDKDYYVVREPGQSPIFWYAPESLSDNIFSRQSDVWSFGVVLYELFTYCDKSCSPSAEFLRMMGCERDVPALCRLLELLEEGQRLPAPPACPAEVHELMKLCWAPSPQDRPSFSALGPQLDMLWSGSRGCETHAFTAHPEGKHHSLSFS

With `CC(C)N1CCN(c2ccc(Nc3n[nH]c(NCc4ccc(O)cc4)c3C(N)=O)cc2)CC1` [reference compound], the values for the Kd (at JAK3; in assay [1]; on JAK2) were 50 to 100 nM, less than 50 nM and less than 50 nM, respectively. For the same compound, the “RCK:JAK3 selectivity ratio” value on JAK3 was “B (B represents 10<Kd (JAK3): Kd (RCK)<100)”. For the same compound, the “RCK:JAK2 selectivity ratio” value at JAK2 is recorded as “C (C represents 1<Kd (JAK2): Kd (RCK)<10)”.

Regarding `CC1CCN(C2CCN(c3ccc(Nc4n[nH]c(NCc5ccc(O)cc5)c4C(N)=O)cc3)CC2)CC1` [reference compound], the Kd (at JAK3; in assay [1]; on JAK2) was less than 50 nM throughout. Moreover, on JAK3, the “RCK:JAK3 selectivity ratio” value is listed as “D (D represents Kd (JAK3): Kd(RCK)<1)”. For the same compound, at JAK2, the “RCK:JAK2 selectivity ratio” value is on record as “C (C represents 1<Kd (JAK2): Kd (RCK)<10)”.

For `NC(=O)c1c(Nc2ccc(N3CCN(C(=O)N4CCCC4)CC3)cc2)n[nH]c1NCc1ccc(O)cc1` [reference compound], the Kd (on JAK3; in assay [1]; at JAK2) was less than 50 nM throughout. In addition, the “RCK:JAK3 selectivity ratio” value at JAK3 is on record as “C (C represents 1<Kd (JAK3): Kd (RCK)<10)”. For the same compound, on JAK2, the “RCK:JAK2 selectivity ratio” value is given as “D (D represents Kd(JAK2): Kd (RCK)<1)”.

Take `NC(=O)c1c(Nc2ccc(N3CCC(F)CC3)cc2)n[nH]c1NCc1ccc(O)cc1` [reference compound]: on JAK3, the Kd is less than 50 nM and the “RCK:JAK3 selectivity ratio” value is on record as “D (D represents Kd (JAK3): Kd(RCK)<1)”. For the same compound, in assay [1], the Kd was less than 50 nM. For the same compound, on JAK2, the Kd is less than 50 nM and the “RCK:JAK2 selectivity ratio” value is recorded as “D (D represents Kd(JAK2): Kd (RCK)<1)”.

`C[C@@H]1CC(c2ccc(Nc3n[nH]c(NCc4ccc(O)cc4)c3C(N)=O)cn2)C[C@H](C)O1` (some centres unmarked) [reference compound]: at JAK3, the Kd is less than 50 nM and the “RCK:JAK3 selectivity ratio” value is “C (C represents 1<Kd (JAK3): Kd (RCK)<10)”. Also, the Kd in assay [1] is less than 50 nM. At JAK2, the Kd is less than 50 nM and the “RCK:JAK2 selectivity ratio” value is “C (C represents 1<Kd (JAK2): Kd (RCK)<10)”.

With `NC(=O)c1c(Nc2ccc(N3CCCCC3)cc2)n[nH]c1NCc1ccc(O)cc1` [reference compound], on JAK3, the Kd was less than 50 nM and the “RCK:JAK3 selectivity ratio” value is on record as “C (C represents 1<Kd (JAK3): Kd (RCK)<10)”. Moreover, in assay [1], the Kd is less than 50 nM. On JAK2, the Kd is less than 50 nM and the “RCK:JAK2 selectivity ratio” value is listed as “C (C represents 1<Kd (JAK2): Kd (RCK)<10)”.

Take `Cc1cc(Nc2n[nH]c(NCc3ccc(O)cc3)c2C(N)=O)ccc1N1CCN(C)CC1` [reference compound]: at JAK3, the Kd was less than 50 nM and the “RCK:JAK3 selectivity ratio” value is “C (C represents 1<Kd (JAK3): Kd (RCK)<10)”. The Kd in assay [1] is less than 50 nM. For the same compound, at JAK2, the Kd is less than 50 nM and the “RCK:JAK2 selectivity ratio” value is “C (C represents 1<Kd (JAK2): Kd (RCK)<10)”.

With `Cc1cc(Nc2n[nH]c(NCc3ccc(O)cc3)c2C(N)=O)ccc1N1CCCCC1` [reference compound], on JAK3, the Kd lay within 50 to 100 nM and the “RCK:JAK3 selectivity ratio” value is on record as “C (C represents 1<Kd (JAK3): Kd (RCK)<10)”. Also, the Kd in assay [1] is less than 50 nM. Besides, at JAK2, the Kd was less than 50 nM and the “RCK:JAK2 selectivity ratio” value is given as “C (C represents 1<Kd (JAK2): Kd (RCK)<10)”.

`NC(=O)c1c(Nc2ccc(N3CCN(Cc4ccccc4)CC3)cc2)n[nH]c1NCc1ccc(O)cc1` [reference compound]: on JAK3, the Kd is less than 50 nM and the “RCK:JAK3 selectivity ratio” value is “C (C represents 1<Kd (JAK3): Kd (RCK)<10)”. In addition, the Kd in assay [1] is less than 50 nM. Besides, at JAK2, the Kd was less than 50 nM and the “RCK:JAK2 selectivity ratio” value was “D (D represents Kd(JAK2): Kd (RCK)<1)”.

For the compound `NC(=O)c1c(Nc2ccc(N3CCS(=O)(=O)CC3)cc2)n[nH]c1NCc1ccc(O)cc1` [reference compound], on JAK3, the Kd was less than 50 nM and the “RCK:JAK3 selectivity ratio” value was “D (D represents Kd (JAK3): Kd(RCK)<1)”. For the same compound, the Kd in assay [1] is less than 50 nM. For the same compound, on JAK2, the Kd is less than 50 nM and the “RCK:JAK2 selectivity ratio” value is recorded as “D (D represents Kd(JAK2): Kd (RCK)<1)”.

Turning to `NC(=O)c1c(Nc2ccc(N3CCCCC3)cn2)n[nH]c1NCc1ccc(O)cc1` [reference compound], at JAK3, the Kd is less than 50 nM and the “RCK:JAK3 selectivity ratio” value is “D (D represents Kd (JAK3): Kd(RCK)<1)”. Further, the Kd in assay [1] is less than 50 nM. Besides, on JAK2, the Kd was less than 50 nM and the “RCK:JAK2 selectivity ratio” value was “D (D represents Kd(JAK2): Kd (RCK)<1)”.

Take `NC(=O)c1c(Nc2ccc(N3CCC(Cl)CC3)cc2)n[nH]c1NCc1ccc(O)cc1` [reference compound]: on JAK3, the Kd is less than 50 nM and the “RCK:JAK3 selectivity ratio” value was “C (C represents 1<Kd (JAK3): Kd (RCK)<10)”. For the same compound, in assay [1], the Kd is less than 50 nM. Besides, at JAK2, the Kd is less than 50 nM and the “RCK:JAK2 selectivity ratio” value is recorded as “D (D represents Kd(JAK2): Kd (RCK)<1)”.

Turning to `NC(=O)c1c(Nc2ccc(CN3CCCC3)cc2)n[nH]c1NCc1ccc(O)cc1` [reference compound], the Kd (on JAK3; in assay [1]; on JAK2) was less than 50 nM throughout. At JAK3, the “RCK:JAK3 selectivity ratio” value is on record as “D (D represents Kd (JAK3): Kd(RCK)<1)”. Besides, the “RCK:JAK2 selectivity ratio” value at JAK2 was “D (D represents Kd(JAK2): Kd (RCK)<1)”.

Consider `CN(C)C1CCN(c2ccc(Nc3n[nH]c(NCc4ccc(O)cc4)c3C(N)=O)cc2)CC1` [reference compound], for which, at JAK3, the Kd was less than 50 nM and the “RCK:JAK3 selectivity ratio” value is reported as “D (D represents Kd (JAK3): Kd(RCK)<1)”. For the same compound, the Kd in assay [1] is less than 50 nM. On JAK2, the Kd is less than 50 nM and the “RCK:JAK2 selectivity ratio” value was “D (D represents Kd(JAK2): Kd (RCK)<1)”.

Regarding `NC(=O)c1c(Nc2ccc(N3CCOCC3)c(F)c2)n[nH]c1NCc1ccc(O)cc1` [reference compound], the Kd (on JAK3; in assay [1]; at JAK2) was less than 50 nM each time.

With `NC(=O)c1c(Nc2ccc(-c3cnco3)cc2)n[nH]c1NCc1ccc(O)cc1` [reference compound], the Kd (at JAK3; in assay [1]; at JAK2) was less than 50 nM each time. Also, the “RCK:JAK3 selectivity ratio” value at JAK3 is reported as “C (C represents 1<Kd (JAK3): Kd (RCK)<10)”. Also, on JAK2, the “RCK:JAK2 selectivity ratio” value was “C (C represents 1<Kd (JAK2): Kd (RCK)<10)”.

Consider `NC(=O)c1c(Nc2ccc(N3CCN(C(=O)N4CCOCC4)CC3)cc2)n[nH]c1NCc1ccc(O)cc1` [reference compound], for which, at JAK3, the Kd was less than 50 nM and the “RCK:JAK3 selectivity ratio” value is “C (C represents 1<Kd (JAK3): Kd (RCK)<10)”. In assay [1], the Kd was less than 50 nM. Besides, on JAK2, the Kd was less than 50 nM and the “RCK:JAK2 selectivity ratio” value was “D (D represents Kd(JAK2): Kd (RCK)<1)”.

With `CC(=O)Nc1cccc(Nc2n[nH]c(NCc3ccc(O)cc3)c2C(N)=O)c1` [reference compound], on JAK3, the Kd is less than 50 nM and the “RCK:JAK3 selectivity ratio” value is “D (D represents Kd (JAK3): Kd(RCK)<1)”. For the same compound, the Kd in assay [1] is less than 50 nM. For the same compound, at JAK2, the Kd is less than 50 nM and the “RCK:JAK2 selectivity ratio” value is “D (D represents Kd(JAK2): Kd (RCK)<1)”.

In the case of `CN1CCN(c2ccc(Nc3n[nH]c(NCc4ccc(O)cc4)c3C(N)=O)cc2Cl)CC1` [reference compound], at JAK3, the Kd was less than 50 nM and the “RCK:JAK3 selectivity ratio” value was “C (C represents 1<Kd (JAK3): Kd (RCK)<10)”. Also, in assay [1], the Kd is less than 50 nM. On JAK2, the Kd was less than 50 nM and the “RCK:JAK2 selectivity ratio” value is “D (D represents Kd(JAK2): Kd (RCK)<1)”.

Consider `NC(=O)c1c(Nc2ccc(F)cc2)n[nH]c1NCc1ccc(O)cc1` [reference compound], for which, on JAK3, the Kd is less than 50 nM and the “RCK:JAK3 selectivity ratio” value was “D (D represents Kd (JAK3): Kd(RCK)<1)”. Moreover, the Kd in assay [1] was less than 50 nM. For the same compound, at JAK2, the Kd is less than 50 nM and the “RCK:JAK2 selectivity ratio” value is listed as “D (D represents Kd(JAK2): Kd (RCK)<1)”.

For the compound `N#Cc1cccc(Nc2n[nH]c(NCc3ccc(O)cc3)c2C(N)=O)c1` [reference compound], at JAK3, the Kd is less than 50 nM and the “RCK:JAK3 selectivity ratio” value is “D (D represents Kd (JAK3): Kd(RCK)<1)”. In assay [1], the Kd was 50 to 100 nM. Also, on JAK2, the Kd is less than 50 nM and the “RCK:JAK2 selectivity ratio” value is given as “D (D represents Kd(JAK2): Kd (RCK)<1)”.

For `NC(=O)c1c(Nc2ccc(N3CCN(c4ncccn4)CC3)cc2)n[nH]c1NCc1ccc(O)cc1` [reference compound], at JAK3, the Kd is less than 50 nM and the “RCK:JAK3 selectivity ratio” value is recorded as “C (C represents 1<Kd (JAK3): Kd (RCK)<10)”. Besides, the Kd in assay [1] was less than 50 nM. Also, on JAK2, the Kd was less than 50 nM and the “RCK:JAK2 selectivity ratio” value is listed as “C (C represents 1<Kd (JAK2): Kd (RCK)<10)”.

For `NC(=O)c1c(Nc2ccc(CN3CCCCC3)cc2)n[nH]c1NCc1ccc(O)cc1` [reference compound], at JAK3, the Kd is less than 50 nM and the “RCK:JAK3 selectivity ratio” value is recorded as “D (D represents Kd (JAK3): Kd(RCK)<1)”. Also, in assay [1], the Kd was less than 50 nM. In addition, on JAK2, the Kd was less than 50 nM and the “RCK:JAK2 selectivity ratio” value is listed as “D (D represents Kd(JAK2): Kd (RCK)<1)”.
